How the values were obtained:
AMPA receptor = experiment: AMPA mediated whole cell currents in cultured cortical neurons (patch clamp, glutamate-induced steady-state current); type: cell-based, Sprague-Dawley rats; settings: cultured rat cortical neurons, 500 μM glutamate, voltage-clamped at −80 mV; read-out: EC2x value (concentration at which the glutamate induced current is increased by 100%)
Description: Synaptic responses mediated by AMPA receptors are increased according to the method of the invention, using the compound described herein. […] The in vitro assay is described as follows. Cortical cells were prepared from day 18-19 embryonic Sprague-Dawley rats and recorded after 3 days in culture. The extracellular solution (ECS) contained (in mM): NaCl (145), KCl (5.4), HEPES (10), MgCl2 (0.8), CaCl2 (1.8), glucose (10), sucrose (30); pH. 7.4. In order to block the voltage-gated sodium currents, 40 nM TTX was added to the recording solution. […]
The whole-cell current was measured with patch-clamp amplifier (Axopatch 200B), filtered at 2 kHz, digitized at 5 kHz and recorded on a PC with pClamp 8. […] A baseline response for each cell was recorded using a 1 s pulse of 500 μM glutamate dissolved in ECS. Responses to test compound were then determined by application of a 10 s pulse of test compound followed by a 1 s pulse of the same concentration of test compound plus 500 μM glutamate and then 10 s of saline. This pulse sequence was repeated until a stable reading was obtained, or until sufficient data points were measured to allow extrapolation to a calculated maximum change.
The mean value of plateau current between 600 ms to 900 ms after application of glutamate or test compound plus glutamate was calculated and used as the parameter to measure the drug effect. […]

[1] = tested on: field EPSP (perforant path / dentate gyrus of the hippocampus); experiment: In vivo physiological testing: field EPSP in dentate gyrus of hippocampus of anesthetized animals; settings: dose of 5 mg/kg, iv administration
Description: The physiological effects of the invention compound were tested in vivo in anesthetized animals according to the following procedures.
Animals are maintained under anesthesia by phenobarbital administered using a Hamilton syringe pump. Stimulating and recording electrodes are inserted into the perforant path and dentate gyrus of the hippocampus, respectively. Once electrodes are implanted, a stable baseline of evoked responses are elicited using single monophasic pulses (100 μs pulse duration) delivered at 3/min to the stimulating electrode. Field EPSPs are monitored until a stable baseline is achieved (about 20-30 min), after which a solution of test compound in HPCD is injected intraperitoneally and evoked field potentials are recorded. Evoked potentials are recorded for approximately 2 h following drug administration or until the amplitude of the field EPSP returns to baseline. In the latter instance, it is common that an iv administration is also carried out with an appropriate dose of the same test compound.

In the case of O=C1c2cc3nnn(CCc4cccc(F)c4)c(=O)c3cc2OCN1C1CC1 [8-Cyclopropyl-3-[2-(3-fluorophenyl)ethyl]-7,8-dihydro-3H-[1,3]oxazino[6,5-g][1,2,3]-benzotriazine-4,9-dione], the EC2x (concentration that doubles the glutamate-induced current) (AMPA receptor) is reported as 100 nM and the “increase in the amplitude of the field EPSP” value [1] is reported as 10%.
